# Measured values taken from US20070009529A1, “Agents that dissolve arterial thrombi” (New York University, priority 2002, published 2007).
# “Also recorded” adds a separate entry of the source. Read-outs that look alike come from different tables or passages of the source.
# B1: Recombinant ADAMTS-18: recombinant disintegrin and metalloprotease with thrombospondin-like motifs, expressed with pBudCE4.1 in 293T cells (protein, UniProt Q8TE60 285-1221, looked up)
# A disintegrin and …: SAGKSQKGLNVETLVVADKKMVEKHGKGNVTTYILTVMNMVSGLFKDGTIGSDINVVVVSLILLEQEPGGLLINHHADQSLNSFCQWQSALIGKNGKRHDHAILLTGFDICSWKNEPCDTLGFAPISGMCSKYRSCTINEDTGLGLAFTIAHESGHNFGMIHDGEGNPCRKAEGNIMSPTLTGNNGVFSWSSCSRQYLKKFLSTPQAGCLVDEPKQAGQYKYPDKLPGQIYDADTQCKWQFGAKAKLCSLGFVKDICKSLWCHRVGHRCETKFMPAAEGTVCGLSMWCRQGQCVKFGELGPRPIHGQWSAWSKWSECSRTCGGGVKFQERHCNNPKPQYGGLFCPGSSRIYQLCNINPCNENSLDFRAQQCAEYNSKPFRGWFYQWKPYTKVEEEDRCKLYCKAENFEFFFAMSGKVKDGTPCSPNKNDVCIDGVCELVGCDHELGSKAVSDACGVCKGDNSTCKFYKGLYLNQHKANEYYPVVLIPAGARSIEIQELQVSSSYLAVRSLSQKYYLTGGWSIDWPGEFPFAGTTFEYQRSFNRPERLYAPGPTNETLVFEILMQGKNPGIAWKYALPKVMNGTPPATKRPAYTWSIVQSECSVSCGGGYINVKAICLRDQNTQVNSSFCSAKTKPVTEPKICNAFSCPAYWMPGEWSTCSKACAGGQQSRKIQCVQKKPFQKEEAVLHSLCPVSTPTQVQACNSHACPPQWSLGPWSQCSKTCGRGVRKRELLCKGSAAETLPESQCTSLPRPELQEGCVLGRCPKNSRLQWVASSWSECSATCGLGVRKREMKCSEKGFQGKLITFPERRCRNIKKPNLDLEETCNRRACPAHPVYNMVAGWYSLPWQQCTVTCGGGVQTRSVHCVQQGRPSSSCLLHQKPPVLRACNTNFCPAPEKREDPSCVDFFNWCHLVPQHGVCNHKFYGKQCCKSCTRKI
# modifications: recombinant, 293T-expressed
# notes: recombinant disintegrin and metalloprotease with thrombospondin-like motifs, expressed with pBudCE4.1 in 293T cells
# B2: HUVEC conditioned media ADAMTS-18: ADAMTS-18 in HUVEC conditioned media (protein, UniProt Q8TE60 285-1221, looked up)
# A disintegrin and …: B1 A disintegrin and …
# modifications: natural, HUVEC conditioned media
# notes: ADAMTS-18 in HUVEC conditioned media
# Key:
# platelets [1] = test: Inhibition of HUVEC ADAMTS-18 induced platelet oxidation fragmentation; format: cell-based; conditions: single agent, n=7
# Text: (§1) Recombinant ADAMTS-18 was then made with the expression vector pBudCE4.1 in 293T cells. This peptide induced platelet 12(S)—HETE and oxidation/fragmentation in an identical kinetic fashion as anti-GPIIIa49-66 antibody. Both expressed rADAMTS-18, and HUVEC conditioned media ADAMTS-18 could be activated by thrombin (0.5μ/mL and then neutralized with hirudin), with optimum effect at one hour (n=4). HUVEC ADAMTS-18 induced oxidation fragmentation could be inhibited about 50% by an scFV antibody raised against the ADAMTS-18 (18-mer) peptide as well as GPIIIa49-66 peptide, as well as RGDS (GPIIIa ligand binding site) (n=7).
# mice = conditions: earlier reports [10], [14]; cited from earlier work
# platelets [2] = test: Platelet oxidation/fragmentation induced independently of anti-GPIIIa49-66 (DCHF-loaded platelets); format: cell-based; conditions: for time of optimum effect of activation by thrombin: thrombin 0.5μ/mL, then neutralized with hirudin, n=4
# [3] = system: p47phox(−/−), gp91phox(−/−)KO, 12-LO(−/−)KO mouse platelets; test: Platelet oxidation in NADPH oxidase and 12-LO KO mouse platelets; format: cell-based; conditions: gp91phox(−/−)KO and 12-LO(−/−)KO mouse platelets
# Experimental: It has also been discovered that platelet oxidation/fragmentation can be induced independently of anti-GPIIIa49-66 by […] A23187, a Ca^++ ionophore, or 0.4 μM PMA, a protein kinase C activator. […] Their reactivity is inhibited by the oxidation scavengers catalase (H2O2) and DPI (diphenylene iodonium, an inhibitor of NADPH-oxidase), and is absent in NADPH oxidase p47phox(−/−), gp91phox(−/−)KO as well as 12-LO(−/−)KO mouse platelets. Thus, anti-GPIIIa49-66 could be inducing the intracellular effects of ionophore and PMA.
# platelets [4] = test: Effect of inhibitors on anti-GPIIIa49-66 Ab-induced platelet particle formation / oxidative fragmentation; format: cell-based, human; conditions: 4 Hrs; doubling concentrations from 50 uM/ml catalase and 5 uM/ml DPI; no UV/light irradiation
# Experimental: Induction of Platelet Particles. […] 1×10^7 gel-filtered platelets/ml were labelled with an anti-GPIIb-FITC monoclonal Ab (MoAb) (3B2) or an anti-GPIIIa-FITC MoAb (Ancell, Bayport, Minn.), 10 ug/ml for 30 min at 4° C., centrifuged at 1000 g×6 min at room temperature, and resuspended in Tyrodes buffer. […] (see below).
# Debris and dead cells were excluded using scatter gates. Only cells with low orthogonal light scattering were included in the sorting gates. Gates were adjusted for control platelets by exclusion of other blood cells. Intact platelets were monitored in the right upper quadrant (RUQ) with the Y-axis measuring forward-scatter and the X-axis measuring fluorescence. A shift in the fluorescent particles from RUQ to LUQ reflected % platelet particle induction of 10,000 counted platelets/particles.
# However, a recent report by Lerner and coworkers [19]provided evidence that Ab's in general are capable of inducing peroxide formation from an assortment of Ag's depending upon the tryptophan and cysteine composition and orientation. […] This hypothesis was tested with the use of diphenyleneiodonium (DPI), an inhibitor of NADH/NADPH oxidase, as well as other flavoprotein oxidases.
# platelets [5] = test: Ca++ flux (fura-2, AM) in activation of oxidative platelet death
# platelets [6] = test: Platelet 12(S)-HETE generation; format: cell-based
# Text: as §1
molecule,measurement,setting,value
RGDS,inhibition of HUVEC ADAMTS-18 induced oxidation fragmentation,platelets [1],about 50%
CAPESIEFPVSEARVLED [GPIIIa49-66 peptide],prevention or reversal of murine thrombocytopenia induced by anti-GPIIIa49-66 Ab,mice,prevented or reversed
same,inhibition of HUVEC ADAMTS-18 induced oxidation fragmentation,platelets [1],about 50%
"CCCCCCCCCCCCCC(=O)O[C@@H]1[C@@H](C)[C@@]2(O)[C@@H](C=C(CO)C[C@]3(O)C(=O)C(C)=C[C@@H]23)[C@@H]2C(C)(C)[C@]12OC(C)=O [PMA, phorbol 12-myristate 13-acetate]",oxidation of platelets loaded with the oxidative fluorochrome DCHF,platelets [2],induce oxidation
same,induction of platelet oxidation/fragmentation,platelets [2]; 0.4 μM,induced
same,reactivity (platelet oxidation) in KO mouse platelets,[3],absent
"c1ccc2c(c1)[I+]c1ccccc1-2 [DPI, diphenyleneiodonium]",effect of oxidation scavenger on reactivity of A23187 and PMA,platelets [2],inhibited
same,effect on Ab-induced platelet particle formation,platelets [4],inhibition; also recorded: inhibited
"O=C(O)CN(CCOCCOCCN(CC(=O)O)CC(=O)O)CC(=O)O [EGTA, ethylenebis(oxyethylenenitrilo)tetraacetic acid]",inhibition of Ca++ flux,platelets [5]; 100 μM,completely inhibited
catalase,effect of oxidation scavenger on reactivity of A23187 and PMA,platelets [2],inhibited
same,effect on Ab-induced platelet particle formation,platelets [4],could inhibit the reaction; also recorded: inhibited
"CNc1ccc2oc(C[C@H]3O[C@@]4(CC[C@H]3C)O[C@H]([C@H](C)C(=O)c3ccc[nH]3)[C@H](C)C[C@H]4C)nc2c1C(=O)O [A23187, calcimycin]",induction of platelet oxidation/fragmentation,platelets [2],induced
same,oxidation of platelets loaded with the oxidative fluorochrome DCHF,platelets [2],induce oxidation
same,reactivity (platelet oxidation) in KO mouse platelets,[3],absent
O=C(O)CN(CC(=O)O)c1ccccc1OCCOc1ccccc1N(CC(=O)O)CC(=O)O [BAPTA],inhibition of Ca++ flux,platelets [5]; 10 microM,completely inhibited
B1,platelet oxidation/fragmentation,platelets [2]; concentration not given,induced
same,time of optimum effect of activation by thrombin,platelets [2],one
same,platelet 12(S)-HETE,platelets [6],induced
B2,time of optimum effect of activation by thrombin,platelets [2],one
